Several values for one entry are separate records, joined by “and”; a condition that tells them apart may be missing. Identical values can stand only once. Entries after “also recorded” stand apart in the source; their conditions may differ.
Columns and labels:
[1] = test system: TNFα; test: LPS-stimulated TNFα secretion from human PBMCs (ELISA); format: cell-based; details: LPS 1 ng/mL, 24 h
Procedure: The principal metabolites from liver metabolism of TQS-168 following oral administration have been described. See Sun et al., Rapid Commun. Mass Spectrom. 32:480-488 (2018), incorporated herein by reference. We synthesized the phase 1 metabolites from liver metabolism of TQS-168 illustrated in FIG. 20 and tested them for the ability to inhibit LPS-stimulated secretion of pro-inflammatory cytokines in vitro.
Briefly, 20,000 human PBMC were aliquoted into each well. LPS was added at 1 ng/mL and the cells incubated for 24 h in the presence of LPS and TQS-168 or one of its metabolites. Readouts were human IL-6 ELISA and human TNFα ELISA. For assay, supernatants were diluted in culture medium. The supernatant dilution for the IL-6 ELISA was 1:8, and the 1:2 for the human TNFα ELISA.

[2] = Plasma concentrations of TQS-168 and TQS-621 after single oral dose 50 mg/kg in mice, three formulations; format: in vivo; details: mice plasma, TQS-168 50 mg/kg p.o.
Procedure: In a second experiment, mice were administered 50 mg/kg TQS-168 by oral gavage. For Group 1, TQS-168 was prepared at a concentration of 5.0 mg/mL in a suspension with […] in PBS. For Group 2, TQS-168 was prepared at a concentration of 5.0 mg/mL as a solution in 10 polyethylene glycol (PEG) 400|30 Kleptose (Roquete)|60% water.
Plasma exposures for Group 1 mice (ng/mL) are presented in Table 2 and for Group 2 mice in Table 3.
C57BL/6 male mice were administered a single dose of TQS-168 at 50 mg/kg using one of three formulations: Group 1-5.0 mg/ml suspension in 0.5% methylcellulose in PBS; Group 2-5.0 mg/ml solution in PEG400 (Fluka) 10%|Kleptose (Roquette) 30%|sterile water 60%; Group 3-5.0 mg/ml suspension in Labrafil M 1944 CS (Gattefosse) 30%|Masine CC (Gattefosse) 5%|Miglyol 812N 10%|sterile water 55%.
Plasma concentrations of TQS-168 and TQS-621 were measured overtime.

[3] = Plasma and brain concentrations after single oral dose 45 mg/kg in mice; format: in vivo; details: TQS-168 45 mg/kg p.o.
Procedure: Mice were administered a single oral dose of 45 mg/kg TQS-168. TQS-168 was prepared at a concentration of 5.0 mg/mL as a solution in 10% polyethylene glycol (PEG) 400|130% Kleptose (Roquette) 60% water.
Concentrations in plasma and in brain were measured at various timepoints and various pharmacokinetic parameters were calculated, as shown below in Tables 4 and 5 and in FIGS. 19A and 19B.
TQS-168 was prepared as a 4.5 mg/ml solution in PEG400 10%| Kleptose 30% sterile water 60%. A single oral dose of 45 mg/kg was administered. Concentrations of TQS-621 were measured in plasma and brain over time.

[4] = clinical; details: male, human, in vivo, 120 mg
[5] = male, C57BL/6, mouse, plasma, po, 50 mg/kg, Group 1 (suspension, 0.5% methylcellulose in PBS), mean
[6] = male, C57BL/6, mouse, plasma, po, 50 mg/kg, Group 2 (solution, PEG400/Kleptose/water), individual mouse
[7] = male, C57BL/6, mouse, plasma, po, 50 mg/kg, Group 2 (solution, PEG400/Kleptose/water), mean
[8] = male, C57BL/6, mouse, plasma, po, 50 mg/kg, Group 3 (suspension, Labrafil/Masine/Miglyol/water), individual mouse
[9] = male, C57BL/6, mouse, plasma, po, 50 mg/kg, Group 3 (suspension, Labrafil/Masine/Miglyol/water), mean
[10] = Group 1 (suspension, 0.5% methylcellulose in PBS), individual mouse
[11] = Group 2 (solution, PEG400/Kleptose/water), individual mouse
[12] = Group 2 (solution, PEG400/Kleptose/water), mean
[13] = Group 3 (suspension, Labrafil/Masine/Miglyol/water), individual mouse
[14] = mouse, po, mice brain, solution PEG 400/Kleptose/water
[15] = mouse, po, mice plasma, solution PEG 400/Kleptose/water

Cmax ([2]; male, C57BL/6, mouse, plasma, po, 50 mg/kg, Group 1 (suspension, 0.5% methylcellulose in PBS), individual mouse, read-out: Cmax): 239 ng/mL
Tmax ([2]; male, C57BL/6, mouse, plasma, po, 50 mg/kg, Group 1 (suspension, 0.5% methylcellulose in PBS), individual mouse, read-out: tmax): 1 h
AUC(0-inf) [2, 5]: 8200 ng·h/mL
AUC(0-t) [2, 5]: 1590 ng·h/mL
half-life [2, 5]: 28.3 h
Cmax ([2]; male, C57BL/6, mouse, plasma, po, 50 mg/kg, Group 1 (suspension, 0.5% methylcellulose in PBS), mean, read-out: Cmax): 235 ng/mL
Tmax ([2]; male, C57BL/6, mouse, plasma, po, 50 mg/kg, Group 1 (suspension, 0.5% methylcellulose in PBS), mean, read-out: tmax): 1.33 h
AUC(0-inf) [2, 6]: 3110 ng·h/mL
AUC(0-t) [2, 6]: 2880 ng·h/mL
half-life [2, 6]: 2.92 h
Cmax ([2]; male, C57BL/6, mouse, plasma, po, 50 mg/kg, Group 2 (solution, PEG400/Kleptose/water), individual mouse, read-out: Cmax): 487 ng/mL
Tmax ([2]; male, C57BL/6, mouse, plasma, po, 50 mg/kg, Group 2 (solution, PEG400/Kleptose/water), individual mouse, read-out: tmax): 2 h
AUC(0-inf) [2, 7]: 2960 ng·h/mL
AUC(0-t) [2, 7]: 2750 ng·h/mL
half-life [2, 7]: 2.9 h
Cmax ([2]; male, C57BL/6, mouse, plasma, po, 50 mg/kg, Group 2 (solution, PEG400/Kleptose/water), mean, read-out: Cmax): 449 ng/mL
Tmax ([2]; male, C57BL/6, mouse, plasma, po, 50 mg/kg, Group 2 (solution, PEG400/Kleptose/water), mean, read-out: tmax): 1.67 h
AUC(0-inf) [2, 8]: 612 ng·h/mL
AUC(0-t) [2, 8]: 564 ng·h/mL
Cmax ([2]; male, C57BL/6, mouse, plasma, po, 50 mg/kg, Group 3 (suspension, Labrafil/Masine/Miglyol/water), individual mouse, read-out: Cmax): 98.9 ng/mL
AUC(0-inf) [2, 9]: 584 ng·h/mL
AUC(0-t) [2, 9]: 533 ng·h/mL
half-life [2, 9]: 2.58 h
Cmax ([2]; male, C57BL/6, mouse, plasma, po, 50 mg/kg, Group 3 (suspension, Labrafil/Masine/Miglyol/water), mean, read-out: Cmax): 92 ng/mL
Tmax ([2]; male, C57BL/6, mouse, plasma, po, 50 mg/kg, Group 3 (suspension, Labrafil/Masine/Miglyol/water), mean, read-out: tmax): 3.33 h
Cmax [2, 10]: 309 ng/mL and 156 ng/mL
t1/2 [2, 10]: 1.88 h and 80.8 h and 2.08 h
AUCInf [2, 11]: 2962 ng·h/mL and 2817 ng·h/mL
AUClast [2, 11]: 2862 ng·h/mL and 2513 ng·h/mL
Cmax [2, 11]: 483 ng/mL and 378 ng/mL
t1/2 [2, 11]: 2.17 h and 3.61 h
AUClast Ratio (Metabolite/Parent) [2, 12]: 0.256
Cmax Ratio (Metabolite/Parent) [2, 12]: 0.211
AUCInf [2, 13]: 621 ng·h/mL and 519 ng·h/mL
AUClast [2, 13]: 532 ng·h/mL and 504 ng·h/mL
Cmax [2, 13]: 117 ng/mL and 58.7 ng/mL
Tmax [2, 13]: 8 h
t1/2 [2, 13]: 3.43 h and 2.93 h and 1.38 h
AUClast Ratio (Metabolites/Parent) ([3]; mice brain, solution): 0.172
Cmax Ratio (Metabolite/Parent) ([3]; mice brain, solution): 0.159
AUCInf ([3]; mice brain, solution PEG 400/Kleptose/water): 4282 ng·h/g
AUClast ([3]; mice brain, solution PEG 400/Kleptose/water, last time point 24 hr): 4234 ng·h/g
Cmax [3, 14]: 678 ng/g
Tmax [3, 14]: 4 h
half-life [3, 14]: 4.85 h
AUC(0-inf) [3, 15]: 4310 ng·h/mL
Cmax [3, 15]: 692 ng/mL
Tmax [3, 15]: 4 h
AUC(0-t) ([3]; mouse, po, mice plasma, solution PEG 400/Kleptose/water, last time point 24 hr): 4280 ng·h/mL
half-life [4]: 10.2 h
AUC ([4]; AUC(0-tau)): 2270 ng·h/mL
Cmax ([4]; Cmax): 331 ng/mL and 1.24 µM
Tmax ([4]; Tmax): 1.5 h
Tmax ([4]; Tmax (median)): 1.75 h
Tmax ([4]; po, Tmax (median)): 1.5 h
Structure (SMILES): CC(C)(C)c1ccc(-c2nc3cc(O)ccc3[nH]2)cc1 [TQS-621]
inhibition of LPS-stimulated TNFα secretion [1]: potently inhibits; also recorded: potent inhibitor
AUCInf [2, 10]: 1163 ng·h/mL and 22064 ng·h/mL and 1379 ng·h/mL
AUClast [2, 10]: 1148 ng·h/mL and 2355 ng·h/mL and 1267 ng·h/mL
